Results: patent US10676471B2, “Cycloalkyl-linked diheterocycle derivatives” (Pfizer Inc., priority 2014, dated 2020)

system: BT20 Cell; assay: Cancer Cell Lysate Total L-Glutamate Assay; assay type: cell-based; conditions: Homo sapiens, BT-20, 2 h, total L-glutamate in cell lysate, BT20 cells, 2 hour incubation with test compound
Procedure: Cancer Cell Lysate Total L-Glutamate Assay
Cancer cell lines (BT20, HCT116, SKOV3, HCC70, SUM149, MDA-MB-231, etc.) were plated in 96 well plates and were used for the total L-glutamate assay when the monolayer was ca. 80% confluent. The media was changed and fresh media containing L-glutamine was added to the 96 well plates, just before incubation of the cells with test compound. The test compound was diluted in 100% DMSO using a two-fold or three-fold serial dilution. Small volumes of the dilutions of test compound were added to the 96 well plates so the final DMSO concentration was 0.5% v/v in the cell culture medium. The cells were incubated at 37° C., 5% CO2, and 95% air for 2 hours. Following the 2 hour incubation, the cells were washed with water 2 times. After the last water wash, 100 μL of 50 mM Tris-HCl pH 7.4 and 0.01% Tween-20 was added to each well and the plate was frozen at −80° C. The 96 well plate was frozen and thawed a total of 3 times and then sonicated for 5 min at 4° C. in a bath sonicator. Following sonication, the 96 well plate was centrifuged for 5 min at 1000 rpm and 10 μL of the supernatant was transferred to a 384 well assay plate.
Total L-glutamate (L-glutamic acid) in the cell lysis supernatant was detected using glutamate oxidase, horseradish peroxidase and Amplex Red reagent (10-acetyl-3,7-dihydroxy phenoxazine, Invitrogen # A22177). In this assay, L-glutamate was oxidized by glutamate oxidase to produce alpha-ketoglutarate (2-oxopentane dioic acid), NH3 and H202. The H2O2 (hydrogen peroxide) was used by horseradish peroxidase (HRP) to oxidize the Amplex Red Reagent to resorufin which is a fluorescent molecule. When resorufin is excited with light with a wavelength 530-560 nm, it emits light at approximately 585 nm. For detection of total L-glutamate in 10 μL of lysate, 15 μL of an enzyme mixture was added to each well of the 384 well assay plate. The enzyme mixture consisted of 50 mM Tris-HCl pH 7.4, 0.01% Tween-20, 50 μM Amplex Red reagent (final concentration), 0.04 U/mL L-glutamate oxidase (final concentration), and 0.125 U/mL HRP (final concentration). The 384 well assay plate was incubated at room temperature for 5 min and then the fluorescence intensity of each well was measured at 585 nm using a 530-560 nm excitation wavelength in a plate based fluorimeter such as an LJL Analyst or a Tecan Infinite plate reader. Standard curves were constructed for this assay using dilutions of a L-glutamate standard. IC50 were calculated by plotting the relative fluorescent units vs log of the inhibitor concentration and fitting the data to the four parameter logistic equation.
Reference: Chapman J. and Zhou M. (1999) Microplate-based fluorometric methods for the enzymatic determination of I-glutamate: application in measuring I-glutamate in food samples. Analytica Chim Acta 402:47-52.

| Compound | IC50 [nM] |
| --- | --- |
| CCC(=O)Nc1nnc(C2CC3(C2)CC(c2nnc(NC(=O)CC)s2)C3)s1 (stereo not shown) [Example 134, N,N′-(spiro[3.3]heptane-2,6-diyldi-1,3,4-thiadiazole-5,2-diyl)dipropanamide] | 1.3 |
| O=C(Cc1ccccc1)Nc1ccc(C[C@@H]2CC[C@H](c3nnc(NC(=O)Cc4ccccn4)s3)C2)nn1 [Example 80, 2-phenyl-N-(6-{[(1R,3S)-3-{5-[(pyridin-2-ylacetyl)amino]-1,3,4-thiadiazol-2-yl}cyclopentyl]methyl}pyridazin-3-yl)acetamide] | 0.1 |
| CC(C(=O)Nc1nnc(CC2CCC(c3nnc(NC(=O)C(C)c4cccnc4)s3)C2)s1)c1cccnc1 (racemic) [Example 30, (rac)-2-(pyridin-3-yl)-N-(5-{[(cis)-3-(5-{[2-(pyridin-3-yl)propanoyl]amino}-1,3,4-thiadiazol-2-yl)cyclopentyl]methyl}-1,3,4-thiadiazol-2-yl)propanamide] | 1.9 |
| CC(=O)Nc1nnc([C@H]2C[C@H](Cc3ccc(NC(=O)Cc4ccccn4)nn3)C2)s1 (single isomer, unassigned) [Example 115, N-[6-({trans-3-[5-(acetylamino)-1,3,4-thiadiazol-2-yl]cyclobutyl}methyl)pyridazin-3-yl]-2-(pyridin-2-yl)acetamide] | 2 |
| O=C(Cc1ccccn1)Nc1ccc(C[C@H]2CC[C@@H](c3nnc(NC(=O)C[C@H]4CCCO4)s3)C2)nn1 (single isomer, unassigned) [Example 131] | 3.1 |
| O=C(Cc1ccccn1)Nc1nnc(C[C@@H]2CC[C@H](c3nnc(NC(=O)Cc4ccccn4)s3)C2)s1 (single isomer, unassigned) [Example 2] | 1 |
| Cn1ccc(Nc2nnc([C@H]3CC[C@@H](Cc4nnc(NC(=O)Cc5ccccn5)s4)C3)s2)n1 (single isomer, unassigned) [Example 89, N-(5-{[(cis)-3-{5-[(1-methyl-1H-pyrazol-3-yl)amino]-1,3,4-thiadiazol-2-yl}cyclopentyl]methyl}-1,3,4-thiadiazol-2-yl)-2-(pyridin-2-yl)acetamide] | 3.9 |
| CCNc1nnc([C@H]2C[C@H](Cc3ccc(NC(=O)Cc4ccccn4)nn3)C2)s1 (single isomer, unassigned) [Example 113, N-[6-({trans-3-[5-(ethylamino)-1,3,4-thiadiazol-2-yl]cyclobutyl}methyl)pyridazin-3-yl]-2-(pyridin-2-yl)acetamide] | 5.6 |
| CC(=O)Nc1nnc(C2CC[C@@H](Cc3nnc(NC(=O)c4ccccc4)s3)C2)s1 (single isomer, unassigned) [Example 13, N-[5-({(cis)-3-[5-(acetylamino)-1,3,4-thiadiazol-2-yl]cyclopentyl}methyl)-1,3,4-thiadiazol-2-yl]benzamide] | 23.8 |
| O=C(Cc1ccccn1)Nc1ccc(C[C@H]2CC[C@@H](c3nnc(NC(=O)c4ccccn4)s3)C2)nn1 (single isomer, unassigned) [Example 116, N-{5-[(cis)-3-({6-[(pyridin-2-ylacetyl)amino]pyridazin-3-yl}methyl)cyclopentyl]-1,3,4-thiadiazol-2-yl}pyridine-2-carboxamide] | 5.9 |
| CC(=O)Nc1nnc(C2CC[C@H](Cc3nnc(NC(=O)Cc4ccccc4)s3)C2)s1 (single isomer, unassigned) [Example 16, N-[5-({(cis)-3-[5-(acetylamino)-1,3,4-thiadiazol-2-yl]cyclopentyl}methyl)-1,3,4-thiadiazol-2-yl]-2-phenylacetamide] | 399 |
| CCC(=O)Nc1ccc(C[C@H]2C[C@@H](c3nnc(NC(=O)Cc4ccccn4)s3)C2)nn1 (single isomer, unassigned) [Example 73] | 0.7 |
| CC(=O)Nc1nnc(C2CCC(Cc3nnc(NC(=O)Cc4ccccn4)s3)C2)s1 (racemic) [Example 18, (rac)-N-[5-({(cis)-3-[5-(acetylamino)-1,3,4-thiadiazol-2-yl]cyclopentyl}methyl)-1,3,4-thiadiazol-2-yl]-2-(pyridin-2-yl)acetamide] | 79.7 |
| CCC(=O)Nc1nnc([C@H]2CC[C@@H](Cc3ccc(NC(=O)Cc4ccccn4)nn3)C2)s1 [Example 119, N-{5-[(1S,3R)-3-({6-[(pyridin-2-ylacetyl)amino]pyridazin-3-yl}methyl)cyclopentyl]-1,3,4-thiadiazol-2-yl}propanamide] | 0.2 |
| CCC(=O)Nc1nnc([C@H]2C[C@@H](Cc3nnc(NC(=O)Cc4ccccn4)s3)C2)s1 (single isomer, unassigned) [Example 105, N-{5-[cis-3-({5-[(pyridin-2-ylacetyl)amino]-1,3,4-thiadiazol-2-yl}methyl)cyclobutyl]-1,3,4-thiadiazol-2-yl}propanamide] | 9.5 |
| CC(=O)Nc1nnc(C2CCC(Cc3nnc(NC(=O)c4ccccc4)s3)C2)s1 (racemic) [Example 11, N-[5-({(cis)-3-[5-(acetylamino)-1,3,4-thiadiazol-2-yl]cyclopentyl}methyl)-1,3,4-thiadiazol-2-yl]benzamide] | 47.9 |
| O=C(Cc1ccccn1)Nc1nnc(C[C@@H]2CC[C@H](c3nnc(Nc4ccccn4)s3)C2)s1 (single isomer, unassigned) [Example 133, 2-(pyridin-2-yl)-N-[5-({(cis)-3-[5-(pyridin-2-ylamino)-1,3,4-thiadiazol-2-yl]cyclopentyl}methyl)-1,3,4-thiadiazol-2-yl]acetamide] | 1.7 |
| CC(C)C(=O)Nc1ccc(CC2CCC(c3nnc(NC(=O)Cc4ccccn4)s3)C2)nn1 (racemic) [Example 76, (rac)-2-methyl-N-(6-{[(cis)-3-{5-[(pyridin-2-ylacetyl)amino]-1,3,4-thiadiazol-2-yl}cyclopentyl]methyl}pyridazin-3-yl)propanamide] | 3 |
| O=C(Cc1ccccn1)Nc1ccc(C[C@H]2CC[C@@H](c3nnc(NC(=O)Cc4ccccn4)s3)C2)nn1 (single isomer, unassigned) [Example 71, 2-(pyridin-2-yl)-N-{5-[(cis)-3-({6-[(pyridin-2-ylacetyl)amino]pyridazin-3-yl}methyl)cyclopentyl]-1,3,4-thiadiazol-2-yl}acetamide] | 2.7 |
| O=C(Cc1ccccn1)Nc1nnc(CC2CCC(c3nnc(NC(=O)Cc4ccccn4)s3)C2)s1 (racemic) [Example 3, (rac)-2-(pyridin-2-yl)-N-(5-{[(cis)-3-{5-[(pyridin-2-ylacetyl)amino]-1,3,4-thiadiazol-2-yl}cyclopentyl]methyl}-1,3,4-thiadiazol-2-yl)acetamide] | 6.4 |
| Cc1ccc(CC(=O)Nc2nnc([C@H]3C[C@@H](Cc4nnc(NC(=O)Cc5ccccn5)s4)C3)s2)nc1 (single isomer, unassigned) [Example 112, 2-(5-methylpyridin-2-yl)-N-{5-[cis-3-({5-[(pyridin-2-ylacetyl)amino]-1,3,4-thiadiazol-2-yl}methyl)cyclobutyl]-1,3,4-thiadiazol-2-yl}acetamide] | 0.2 |
| CC(=O)Nc1nnc(C[C@H]2C[C@@H](c3nnc(NC(C)=O)s3)C2)s1 (single isomer, unassigned) [Example 62, N-[5-({cis-3-[5-(acetylamino)-1,3,4-thiadiazol-2-yl]cyclobutyl}methyl)-1,3,4-thiadiazol-2-yl]acetamide] | 38.5 |
| O=C(Cc1ccccc1)Nc1ccc(C[C@H]2C[C@@H](c3nnc(NC(=O)Cc4ccccn4)s3)C2)nn1 (single isomer, unassigned) [Example 118, 2-phenyl-N-{6-[(cis-3-{5-[(pyridin-2-ylacetyl)amino]-1,3,4-thiadiazol-2-yl}cyclobutyl)methyl]pyridazin-3-yl}acetamide] | 0.2 |
| Cn1ccc(C(=O)Nc2nnc(C[C@H]3CC[C@@H](c4nnc(NC(=O)Cc5ccccn5)s4)C3)s2)n1 (racemic) [Example 137, (rac)-1-methyl-N-(5-{[(cis)-3-{5-[(pyridin-2-ylacetyl)amino]-1,3,4-thiadiazol-2-yl}cyclopentyl]methyl}-1,3,4-thiadiazol-2-yl)-1H-pyrazole-3-carboxamide] | 4.4 |
| C[C@H](c1nnc(NC(=O)Cc2ccccn2)s1)[C@H]1C[C@@H](c2nnc(NC(=O)Cc3ccccn3)s2)C1 (single isomer, unassigned) [Example 102, 2-(pyridin-2-yl)-N-{5-[(1-(cis)-3-{5-[(pyridin-2-ylacetyl)amino]-1,3,4-thiadiazol-2-yl}cyclobutyl)ethyl]-1,3,4-thiadiazol-2-yl}acetamide] | 2 |
